According to US20260250257A1, “ANTIBACTERIAL AND SYNERGISTIC ACTIVE COMPOUND AND USE THEREOF” (EAST CHINA UNIVERSITY OF SCIENCE AND TECHNOLOGY, priority 2023, published 2026):
≈ marks a conversion by molar mass, not a printed value.

These molecules were tested on ATCC19606 strain (Acinetobacter baumannii) (assay: Broth microdilution, antibacterial activity of the compound used alone). Settings: not given.
Format: cell-based
Source text: (§1) The broth microdilution method was used to test the antibacterial effects of the compounds of the present invention against various Gram-negative bacterial strains when used alone.

Row | SMILES | Antibacterial activity of the compound of Formula I, ATCC19606
1 | CC(=O)N(C)c1cccc(-c2csc(N=C(N)N)n2)c1 [Compound I-30] | 256 µg/mL
2 | CSc1cc2ccccn2c1-c1c[nH]c(N=C2NCCCN2)n1 [Compound I-190] | 256 µg/mL
3 | CC(C)c1cccc(-c2c[nH]c(N=C(N)N)n2)c1 [Compound I-16] | 256 µg/mL
4 | NC(N)=Nc1nc(-c2cccc3cccc(Cl)c23)c(Cl)s1 [Compound I-62] | 256 µg/mL
5 | NC(N)=Nc1nc(-c2cc(Cl)c(O)c(Cl)c2)co1 [Compound I-40] | 256 µg/mL
6 | Ic1ccccc1Oc1ccccc1-c1csc(N=C2NCCCN2)n1 [Compound I-147] | 256 µg/mL
7 | Oc1cc(Oc2ccc(Cl)cc2Cl)cc(-c2csc(N=C3NCCCN3)n2)c1 [Compound I-156] | 256 µg/mL
8 | C[Si](C)(C)c1ccc(-c2csc(N=C(N)N)n2)cc1 [Compound I-22] | 256 µg/mL

Same assay, conditions: read-out: Antibacterial activity of the compound of Formula I, ATCC19606

Row | MIC | SMILES
9 | 256 µg/mL (≈ 759 µM) | NC(N)=Nc1nc(-c2cccc(NC(=O)c3ccccc3)c2)cs1 [Compound I-109]
10 | 256 µg/mL (≈ 812 µM) | NC(N)=Nc1nc(-c2cc(OCc3ccccc3)no2)cs1 [Compound I-113]

The molecules below were run on ATCC25922 strain (Escherichia coli) in the same assay as above. Settings: not given.
Format: cell-based
Source text: as §1

Row | SMILES | Antibacterial activity of the compound of Formula I, ATCC25922
11 | CC(=O)N(C)c1cccc(-c2csc(N=C(N)N)n2)c1 [Compound I-30] | 256 µg/mL
12 | CSc1cc2ccccn2c1-c1c[nH]c(N=C2NCCCN2)n1 [Compound I-190] | 256 µg/mL
13 | CC(C)c1cccc(-c2c[nH]c(N=C(N)N)n2)c1 [Compound I-16] | 256 µg/mL
14 | NC(N)=Nc1nc(-c2cccc3cccc(Cl)c23)c(Cl)s1 [Compound I-62] | 128 µg/mL
15 | NC(N)=Nc1nc(-c2cc(Cl)c(O)c(Cl)c2)co1 [Compound I-40] | 256 µg/mL
16 | Ic1ccccc1Oc1ccccc1-c1csc(N=C2NCCCN2)n1 [Compound I-147] | 128 µg/mL
17 | Oc1cc(Oc2ccc(Cl)cc2Cl)cc(-c2csc(N=C3NCCCN3)n2)c1 [Compound I-156] | 256 µg/mL
18 | C[Si](C)(C)c1ccc(-c2csc(N=C(N)N)n2)cc1 [Compound I-22] | 256 µg/mL

Same assay, conditions: read-out: Antibacterial activity of the compound of Formula I, ATCC25922

Row | MIC | SMILES
19 | 256 µg/mL (≈ 759 µM) | NC(N)=Nc1nc(-c2cccc(NC(=O)c3ccccc3)c2)cs1 [Compound I-109]
20 | 128 µg/mL (≈ 406 µM) | NC(N)=Nc1nc(-c2cc(OCc3ccccc3)no2)cs1 [Compound I-113]

What follows are molecules tested on ATCC13883 strain (Klebsiella pneumoniae) in the same assay as above. Settings: not given.
Format: cell-based
Source text: as §1

Row | SMILES | Antibacterial activity of the compound of Formula I, ATCC13883
21 | CC(=O)N(C)c1cccc(-c2csc(N=C(N)N)n2)c1 [Compound I-30] | 256 µg/mL
22 | CSc1cc2ccccn2c1-c1c[nH]c(N=C2NCCCN2)n1 [Compound I-190] | 256 µg/mL
23 | CC(C)c1cccc(-c2c[nH]c(N=C(N)N)n2)c1 [Compound I-16] | 256 µg/mL
24 | NC(N)=Nc1nc(-c2cccc3cccc(Cl)c23)c(Cl)s1 [Compound I-62] | 128 µg/mL
25 | NC(N)=Nc1nc(-c2cc(Cl)c(O)c(Cl)c2)co1 [Compound I-40] | 256 µg/mL
26 | Ic1ccccc1Oc1ccccc1-c1csc(N=C2NCCCN2)n1 [Compound I-147] | 128 µg/mL
27 | Oc1cc(Oc2ccc(Cl)cc2Cl)cc(-c2csc(N=C3NCCCN3)n2)c1 [Compound I-156] | 256 µg/mL
28 | C[Si](C)(C)c1ccc(-c2csc(N=C(N)N)n2)cc1 [Compound I-22] | 256 µg/mL

Same assay, conditions: read-out: Antibacterial activity of the compound of Formula I, ATCC13883

Row | MIC | SMILES
29 | 256 µg/mL (≈ 759 µM) | NC(N)=Nc1nc(-c2cccc(NC(=O)c3ccccc3)c2)cs1 [Compound I-109]
30 | 128 µg/mL (≈ 406 µM) | NC(N)=Nc1nc(-c2cc(OCc3ccccc3)no2)cs1 [Compound I-113]

Each molecule was assayed on ATCC9027 strain (Pseudomonas aeruginosa) in the same assay as above. Settings: not given.
Format: cell-based
Source text: as §1

Row | SMILES | Antibacterial activity of the compound of Formula I, ATCC9027
31 | CC(=O)N(C)c1cccc(-c2csc(N=C(N)N)n2)c1 [Compound I-30] | 256 µg/mL
32 | CSc1cc2ccccn2c1-c1c[nH]c(N=C2NCCCN2)n1 [Compound I-190] | 256 µg/mL
33 | CC(C)c1cccc(-c2c[nH]c(N=C(N)N)n2)c1 [Compound I-16] | 256 µg/mL
34 | NC(N)=Nc1nc(-c2cccc3cccc(Cl)c23)c(Cl)s1 [Compound I-62] | 64 µg/mL
35 | NC(N)=Nc1nc(-c2cc(Cl)c(O)c(Cl)c2)co1 [Compound I-40] | 256 µg/mL
36 | Ic1ccccc1Oc1ccccc1-c1csc(N=C2NCCCN2)n1 [Compound I-147] | 64 µg/mL
37 | Oc1cc(Oc2ccc(Cl)cc2Cl)cc(-c2csc(N=C3NCCCN3)n2)c1 [Compound I-156] | 256 µg/mL
38 | C[Si](C)(C)c1ccc(-c2csc(N=C(N)N)n2)cc1 [Compound I-22] | 256 µg/mL

Same assay, conditions: read-out: Antibacterial activity of the compound of Formula I, ATCC9027

Row | MIC | SMILES
39 | 256 µg/mL (≈ 759 µM) | NC(N)=Nc1nc(-c2cccc(NC(=O)c3ccccc3)c2)cs1 [Compound I-109]
40 | 64 µg/mL (≈ 203 µM) | NC(N)=Nc1nc(-c2cc(OCc3ccccc3)no2)cs1 [Compound I-113]

What follows are molecules tested on ATCC19606 strain (Acinetobacter baumannii) (assay: Checkerboard antibacterial synergistic activity test with polymyxin E (FIC)). Settings: combined with polymyxin E.
Format: cell-based
Parameters: key: FIC≤0.5 synergy; 0.5–1 additive; 1–2 indifferent; ≥2 antagonism
Procedure, shortened: (§2)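 Interaction is reported as the fractional inhibitory concentration, read after 16 h of growth at 37° C. in Mueller-Hinton broth. Each well paired one level of polymyxin E (prepared at 16 to 0.015 μg/ml) with one of the test agent (prepared at 256 to 4 μg/ml) before bacteria were added.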

Row | SMILES | Synergistic activity (FIC value) ATCC19606
41 | NC(N)=Nc1nc(-c2cccc(NC(=O)c3ccccc3)c2)cs1 [Compound I-109] | 1.25
42 | NC(N)=Nc1nc(-c2cc(OCc3ccccc3)no2)cs1 [Compound I-113] | 1.25
43 | CC(=O)N(C)c1cccc(-c2csc(N=C(N)N)n2)c1 [Compound I-30] | 0.13
44 | CSc1cc2ccccn2c1-c1c[nH]c(N=C2NCCCN2)n1 [Compound I-190] | 0.75
45 | CC(C)c1cccc(-c2c[nH]c(N=C(N)N)n2)c1 [Compound I-16] | 0.3
46 | NC(N)=Nc1nc(-c2cccc3cccc(Cl)c23)c(Cl)s1 [Compound I-62] | 0.52
47 | NC(N)=Nc1nc(-c2cc(Cl)c(O)c(Cl)c2)co1 [Compound I-40] | 0.13
48 | Ic1ccccc1Oc1ccccc1-c1csc(N=C2NCCCN2)n1 [Compound I-147] | 0.03
49 | Oc1cc(Oc2ccc(Cl)cc2Cl)cc(-c2csc(N=C3NCCCN3)n2)c1 [Compound I-156] | 0.04
50 | C[Si](C)(C)c1ccc(-c2csc(N=C(N)N)n2)cc1 [Compound I-22] | 0.75

These molecules were tested on ATCC25922 strain (Escherichia coli) in the same assay as above. Settings: combined with polymyxin E.
Format: cell-based
Parameters: key: FIC≤0.5 synergy; 0.5–1 additive; 1–2 indifferent; ≥2 antagonism
Procedure, shortened: as §2

Row | SMILES | Synergistic activity (FIC value) ATCC25922
51 | NC(N)=Nc1nc(-c2cccc(NC(=O)c3ccccc3)c2)cs1 [Compound I-109] | 0.27
52 | NC(N)=Nc1nc(-c2cc(OCc3ccccc3)no2)cs1 [Compound I-113] | 0.53
53 | CC(=O)N(C)c1cccc(-c2csc(N=C(N)N)n2)c1 [Compound I-30] | 0.52
54 | CSc1cc2ccccn2c1-c1c[nH]c(N=C2NCCCN2)n1 [Compound I-190] | 1.25
55 | CC(C)c1cccc(-c2c[nH]c(N=C(N)N)n2)c1 [Compound I-16] | 0.5
56 | NC(N)=Nc1nc(-c2cccc3cccc(Cl)c23)c(Cl)s1 [Compound I-62] | 0.63
57 | NC(N)=Nc1nc(-c2cc(Cl)c(O)c(Cl)c2)co1 [Compound I-40] | 0.52
58 | Ic1ccccc1Oc1ccccc1-c1csc(N=C2NCCCN2)n1 [Compound I-147] | 0.18
59 | Oc1cc(Oc2ccc(Cl)cc2Cl)cc(-c2csc(N=C3NCCCN3)n2)c1 [Compound I-156] | 0.2
60 | C[Si](C)(C)c1ccc(-c2csc(N=C(N)N)n2)cc1 [Compound I-22] | 0.5

These molecules were tested on ATCC13883 strain (Klebsiella pneumoniae) in the same assay as above. Settings: combined with polymyxin E.
Format: cell-based
Parameters: key: FIC≤0.5 synergy; 0.5–1 additive; 1–2 indifferent; ≥2 antagonism
Procedure, shortened: as §2

Row | SMILES | Synergistic activity (FIC value) ATCC13883
61 | NC(N)=Nc1nc(-c2cccc(NC(=O)c3ccccc3)c2)cs1 [Compound I-109] | 1.25
62 | NC(N)=Nc1nc(-c2cc(OCc3ccccc3)no2)cs1 [Compound I-113] | 1.25
63 | CC(=O)N(C)c1cccc(-c2csc(N=C(N)N)n2)c1 [Compound I-30] | 0.19
64 | CSc1cc2ccccn2c1-c1c[nH]c(N=C2NCCCN2)n1 [Compound I-190] | 1.25
65 | CC(C)c1cccc(-c2c[nH]c(N=C(N)N)n2)c1 [Compound I-16] | 0.25
66 | NC(N)=Nc1nc(-c2cccc3cccc(Cl)c23)c(Cl)s1 [Compound I-62] | 0.52
67 | NC(N)=Nc1nc(-c2cc(Cl)c(O)c(Cl)c2)co1 [Compound I-40] | 0.19
68 | Ic1ccccc1Oc1ccccc1-c1csc(N=C2NCCCN2)n1 [Compound I-147] | 0.16
69 | Oc1cc(Oc2ccc(Cl)cc2Cl)cc(-c2csc(N=C3NCCCN3)n2)c1 [Compound I-156] | 0.13
70 | C[Si](C)(C)c1ccc(-c2csc(N=C(N)N)n2)cc1 [Compound I-22] | 0.38

Each molecule was assayed on ATCC9027 strain (Pseudomonas aeruginosa) in the same assay as above. Settings: combined with polymyxin E.
Format: cell-based
Parameters: key: FIC≤0.5 synergy; 0.5–1 additive; 1–2 indifferent; ≥2 antagonism
Procedure, shortened: as §2

Row | SMILES | Synergistic activity (FIC value) ATCC9027
71 | NC(N)=Nc1nc(-c2cccc(NC(=O)c3ccccc3)c2)cs1 [Compound I-109] | 1.25
72 | NC(N)=Nc1nc(-c2cc(OCc3ccccc3)no2)cs1 [Compound I-113] | 1.25
73 | CC(=O)N(C)c1cccc(-c2csc(N=C(N)N)n2)c1 [Compound I-30] | 1.25
74 | CSc1cc2ccccn2c1-c1c[nH]c(N=C2NCCCN2)n1 [Compound I-190] | 1.25
75 | CC(C)c1cccc(-c2c[nH]c(N=C(N)N)n2)c1 [Compound I-16] | 0.63
76 | NC(N)=Nc1nc(-c2cccc3cccc(Cl)c23)c(Cl)s1 [Compound I-62] | 1.25
77 | NC(N)=Nc1nc(-c2cc(Cl)c(O)c(Cl)c2)co1 [Compound I-40] | 0.51
78 | Ic1ccccc1Oc1ccccc1-c1csc(N=C2NCCCN2)n1 [Compound I-147] | 0.28
79 | Oc1cc(Oc2ccc(Cl)cc2Cl)cc(-c2csc(N=C3NCCCN3)n2)c1 [Compound I-156] | 0.28
80 | C[Si](C)(C)c1ccc(-c2csc(N=C(N)N)n2)cc1 [Compound I-22] | 0.63
